Test results taken from US6608069B1, “Phenyl xanthine derivatives” (SmithKline Beecham Corporation, priority 1998, dated 2003).
Where a name gives a salt, the structure may show the parent alone.

system: not given; experiment: not given; conditions: not given

| melting point [°C] | SMILES |
| --- | --- |
| > 250 | O=C(O)/C=C/c1ccc(-c2nc3c(=O)n(CC4CCCCCC4)c(=O)n(CC4CCCCCC4)c3[nH]2)cc1 (hydrate or solvate) [Example 7, (E)-4-(1,3-bis(cycloheptylmethyl)-1,2,3,6-tetrahydro-2,6-dioxo-9H-purin-8-yl)cinnamic Acid] |
| > 350 | O=C(O)/C=C/c1cccc(-c2nc3c(=O)n(Cc4ccccc4)c(=O)n(Cc4ccccc4)c3[nH]2)c1 (hydrate or solvate) [Example 13, (E)-3-(1,3-bis(benzyl)-1,2,3,6-tetrahydro-2,6-dioxo-9H-purin-8-yl)cinnamic Acid] |
| > 350 | Cn1c(=O)c2nc(-c3ccc(/C=C/C(=O)O)cc3)[nH]c2n(C)c1=O (hydrate or solvate) [Example 14, (E)-4-(1,3-bis(methyl)-1,2,3,6-tetrahydro-2,6-dioxo-9H-purin-8-yl)cinnamic Acid] |
| > 300 | O=C(O)/C=C/c1ccc(-c2nc3c(=O)n(Cc4ccc(F)cc4)c(=O)n(Cc4ccc(F)cc4)c3[nH]2)cc1 (hydrate or solvate) [Example 25, (E)-4-(1,3-bis(4-fluorobenzyl)-1,2,3,6-tetrahydro-2,6-dioxo-9H-purin-8-yl)cinnamic Acid] |
| > 350 | CCCn1c(=O)c2nc(-c3cccc(/C=C/C(=O)O)c3)[nH]c2n(CCC)c1=O (hydrate or solvate) [Example 26, (E)-3-[1,3-bis(propyl)-1,2,3,6-tetrahydro-2,6-dioxo-9H-purin-8-yl]cinnamic Acid] |
| > 300 | O=C(O)/C=C/c1ccc(-c2nc3c(=O)n(CC4CCC4)c(=O)n(CC4CCC4)c3[nH]2)cc1 (hydrate or solvate) [Example 27, (E)-4-(1,3-bis(cyclobutylmethyl)-1,2,3,6-tetrahydro-2,6-dioxo-9H-purin-8-yl)cinnamic Acid] |
| > 300 | O=C(O)/C=C/c1ccc(-c2nc3c(=O)n(Cc4cccnc4)c(=O)n(Cc4cccnc4)c3[nH]2)cc1 (hydrate or solvate) [Example 30, (E)-4-(1,3-Bis(3-pyridinylmethyl)-1,2,3,6-tetrahydro-2,6-dioxo-9H-purin-8-yl)cinnamic Acid] |
| > 350 | O=C(O)/C=C/c1cccc(-c2nc3c(=O)n(CC4CCCCC4)c(=O)n(CC4CCCCC4)c3[nH]2)c1 (hydrate or solvate) [Example 31, (E)-3-[1,3-Bis(cyclohexylmethyl)-1,2,3,6-tetrahydro-2,6-dioxo-9H-purin-8-yl]cinnamic Acid] |
| > 300 | O=C(O)/C=C/c1ccc(-c2nc3c(=O)n(Cc4ccccc4)c(=O)n(Cc4ccccc4)c3[nH]2)cc1 [Example 2, (E)-4-(1,3-bis(benzyl)-1,2,3,6-tetrahydro-2,6-dioxo-9H-purin-8-yl)cinnamic Acid] |
| > 300 | O=C(O)/C=C/c1ccc(-c2nc3c(=O)n(CC4CCCC4)c(=O)n(CC4CCCC4)c3[nH]2)cc1 [Example 3, (E)-4-(1,3-bis(cyclopentylmethyl)-1,2,3,6-tetrahydro-2,6-dioxo-9H-purin-8-yl)cinnamic Acid] |
| > 300 | CCCn1c(=O)c2nc(-c3ccc(/C=C/C(=O)O)cc3)[nH]c2n(CCC)c1=O [Example 4, (E)-4-(1,3-bis(propyl)-1,2,3,6-tetrahydro-2,6-dioxo-9H-purin-8-yl)cinnamic Acid] |
| > 250 | O=C(O)/C=C/c1ccc(-c2nc3c(=O)n(CC4CC4)c(=O)n(CC4CC4)c3[nH]2)cc1 [Example 5, (E)-4-(1,3-bis(cyclopropylmethyl)-1,2,3,6-tetrahydro-2,6-dioxo-9H-purin-8-yl)cinnamic Acid] |
| > 250 | O=C(O)/C=C/c1ccc(-c2nc3c(=O)n(CCC4CCCCC4)c(=O)n(CCC4CCCCC4)c3[nH]2)cc1 [Example 8, (E)-4-(1,3-bis(2-cyclohexylethyl)-1,2,3,6-tetrahydro-2,6-dioxo-9H-purin-8-yl)cinnamic Acid] |
| > 375 | O=C(O)/C=C/c1ccc(-c2nc3c(=O)n(-c4ccccc4)c(=O)n(-c4ccccc4)c3[nH]2)cc1 [Example 9, (E)-4-(1,3-bis(phenyl)-1,2,3,6-tetrahydro-2,6-dioxo-9H-purin-8-yl)cinnamic Acid] |
| > 300 | CC(C)Cn1c(=O)c2nc(-c3ccc(/C=C/C(=O)O)cc3)[nH]c2n(CC(C)C)c1=O [Example 10, (E)-4-(1,3-bis(2-methylpropyl)-1,2,3,6-tetrahydro-2,6-dioxo-9H-purin-8-yl)cinnamic Acid] |

system: cytokine-stimulated human umbilical vein endothelial cells; experiment: Cell Adhesion Assay: adherence of fluorescently-labelled leukocytes to endothelial cell monolayers; type: cell-based; conditions: Homo sapiens; inhibition of cytokine-stimulated adhesion minus basal adhesion; calcein-AM labelled leukocytes on HUVEC monolayers
Protocol: The antiadhesion activity of compounds of the invention was determined using a modification of the previously described method, Jurgensen, C. H. et. al., J. Immunol. 144: 653-661. The adhesiveness of cytokine-stimulated human umbilical vein endothelial cells was assessed by quantitating the adherence of fluorescently-labelled (calcein-AM, Molecular Probes, Eugene, Oreg.) leukocytes to endothelial cell monolayers. Activity was determined by calculating inhibition of cytokine-stimulated adhesion minus the basal adhesion (unstimulated).

| IC50 [nM] | SMILES |
| --- | --- |
| 49 ± 16 | COCCOCCOCCOCCOCCOCCOCCOCCOCCOCc1ccc(-c2nc3c([nH]2)c(=O)n(CC2CCCCC2)c(=O)n3CC2CCCCC2)cc1 [Example 96, 1,3-Bis(cyclohexylmethyl)-8-[4-(2,5,8,11,14,17,20,23,26,29-decaoxatriacont-1-yl)phenyl]-3,7-dihydro-1H-purine-2,6-dione] |
| 29 ± 11 | COCCOCCOCCOCCOCCOCCOCCOCCOCCOCc1cccc(-c2nc3c([nH]2)c(=O)n(CC2CCCCC2)c(=O)n3CC2CCCCC2)c1 [Example 110, 1,3-Bis(cyclohexylmethyl)-8-[3-(2,5,8,11,14,17,20,23,26,29-decaoxatriacont-1-yl)phenyl]-3,7-dihydro-1H-purine-2,6-dione] |

same assay, conditions: inhibition of cytokine-stimulated adhesion minus basal adhesion; calcein-AM labelled leukocytes on HUVEC monolayers

| IC50 [nM] | SMILES |
| --- | --- |
| > 1000 | COCCOCCOCCOC(=O)/C=C/c1ccc(-c2nc3c(c(=O)n(CC4CCCCC4)c(=O)n3CC3CCCCC3)n2CCOCCOCCOC)cc1 [Example 97] |
| 37 ± 23 | COCCOCCOCCOCCOCCOCCOCCOCCOCCOC(=O)/C=C/c1ccc(-c2nc3c([nH]2)c(=O)n(CC2CCCCC2)c(=O)n3CC2CCCCC2)s1 [Example 98, (E)-3-[5-[1,3-bis(cyclohexylmethyl)-2,3,6,7-tetrahydro-2,6-dioxo-1H-purin-8-yl]-2-thienyl]-2-propenoic Acid Nonaethylene Glycol Methyl Ether Ester] |
| 77 ± 29 | COCCOCCOCCOCCOCCOCCOCCOCCOCCNC(=O)c1ccc(-c2nc3c(=O)n(CC4CCCCC4)c(=O)n(CC4CCCCC4)c3[nH]2)nc1 [Example 99, 6-(1,3-Bis(cyclohexylmethyl)-1,2,3,6-tetrahydro-2,6-dioxo-9H-purin-8-yl)nicotinic Acid Nonaethylene Glycol Methyl Ether Amide] |
| 25 ± 8 | COCCOCCOCCOCCOCCOCCOCCOCCOCCN(CC1CC1)C(=O)/C=C/c1ccc(-c2nc3c(=O)n(CC4CCCCC4)c(=O)n(CC4CCCCC4)c3[nH]2)cc1 [Example 100, (E)-4-(1,3-Bis(cyclohexylmethyl)-1,2,3,6-tetrahydro-2,6-dioxo-9H-purin-8-yl)cinnamic Acid N-cyclopropylmethyl Nonaethylene Glycol Methyl Ether Amide] |
| 340 ± 94 | O=C(/C=C/c1ccc(-c2nc3c(=O)n(CC4CCCCC4)c(=O)n(CC4CCCCC4)c3[nH]2)cc1)NCCOCCOCCOCCOCCOCCOCc1ccccc1 [Example 101, (E)-4-(1,3-Bis(cyclohexylmethyl)-1,2,3,6-tetrahydro-2,6-dioxo-9H-purin-8-yl)cinnamic Acid Hexaethylene Glycol Benzyl Ether Amide] |
| 230 ± 110 | COCCOCCOCCOCCOCCOCCOCCOC(=O)/C=C/c1ccc(-c2nc3c(c(=O)[nH]c(=O)n3CC3CCCCC3)n2C)cc1 [Example 103, (E)-4-[(3-Cyclohexylmethyl)-2,3,6,7-tetrahydro-2,6-dioxo-7-methyl-1H-purin-8-yl]cinnamic Acid Heptaethylene Glycol Methyl Ether Ester] |
| 86 ± 54 | COCCOCCOCCOCCOCCOCCOCCOCCOCCOC(=O)/C=C/c1ccc(-c2nc3c(c(=O)[nH]c(=O)n3CC3CCCCC3)n2C)cc1 [Example 104, (E)-4-[(3-Cyclohexylmethyl)-2,3,6,7-tetrahydro-2,6dioxo-7-methyl-1H-purin-8-yl]cinnamic Acid Nonaethylene Glycol Methyl Ether Ester] |
| 200 ± 80 | COCCOCCOCCOCCOCCOCCOCCOCCOCCOC(=O)/C=C/c1ccc(-c2nc3c(c(=O)n(C)c(=O)n3CC3CCCCC3)n2C)cc1 [Example 105, (E)-4-[(3-Cyclohexylmethyl)-2,3,6,7-tetrahydro-2,6dioxo-1,7-dimethyl-1H-purin-8-yl]cinnamic Acid Nonaethylene Glycol Methyl Ether Ester] |
| 110 ± 56 | COCCOCCOCCOCCOCCOCCOCCNCc1ccc(-c2nc3c(=O)n(CC4CCCCC4)c(=O)n(CC4CCCCC4)c3[nH]2)cc1 [Example 106, 4-[1,3-Bis(cyclohexylmethyl)-1,2.3,6-tetrahydro-2,6-dioxo-9H-purin-8-yl]benzylamine N-Heptaethylene Glycol Methyl Ether] |
| 300 ± 82 | COCCOCCOCCOCCOCCOCCOCCOCCOCCNCc1ccc(-c2nc3c(=O)n(CC4CCCCC4)c(=O)n(CC4CCCCC4)c3[nH]2)cc1 [Example 108, 4-[1,3-Bis(cyclohexylmethyl)-1,2,3,6-tetrahydro-2,6-dioxo-9H-purin-8-yl]benzylamine N-Nonaethylene Glycol Methyl Ether] |
| < 0.1 | COCCOCCOCCOCCOCCOCCOCCOC(=O)/C=C/c1ccc(-c2nc3c(c(=O)n(CC4CCCCC4)c(=O)n3CC3CCCCC3)n2C)cc1 [Example 111, (E)-4-(1,3-Bis(cyclohexylmethyl)-2,3,6,7-tetrahydro-2,6-dioxo-7-methyl-1H-purin-8-yl)cinnamic Acid Heptaethylene Glycol Methyl Ether Ester] |

same assay, conditions: inhibition of cytokine-stimulated adhesion minus basal adhesion; calcein-AM labelled leukocytes on HUVEC monolayers; Hydrochloride

| IC50 [nM] | SMILES |
| --- | --- |
| 39 ± 19 | COCCOCCOCCOCCOCCOCCOCCNCc1ccc(-c2nc3c(=O)n(CC4CCCCC4)c(=O)n(CC4CCCCC4)c3[nH]2)cc1 [Example 107, 4-[1,3-Bis(cyclohexylmethyl)-1,2,3,6-tetrahydro-2,6-dioxo-9H-purin-8-yl]benzylamine N-Heptaethylene Glycol Methyl Ether Hydrochloride] |
